Series [1] is described as follows: Hygroscopicity test (Chinese Pharmacopoeia 2015, General Chapter 9103). The conditions noted are these: Guidelines for Drug Moisture Test, Chinese Pharmacopoeia 2015 Chapter 9103. The format is physicochemical. The method, then:
Took the crystalline form A, crystalline form B, crystalline form D and crystalline form E of the compound of formula I to conduct test according to the “Guidelines for Drug Moisture Test” of the Chinese Pharmacopoeia 2015 Edition Fourth General Chapter 9103, and respectively, the weight gain of samples due to hygroscopicity was calculated.

Series [2] is described as follows: Pharmacokinetic test in rats (relative bioavailability after gavage). The class given is in vivo. The conditions noted are these: intragastric 20 mg/kg in gavage capsules; for Relative F: relative to crystalline form A (100). How it is done:
The relative bioavailability of the compound of formula I in vivo was evaluated, after SD rats were gavaged with crystalline form A, crystalline form B, crystalline form D and crystalline form E of the compound of formula I.
Test samples: crystalline form A, crystalline form B, crystalline form D and crystalline form E of the compound of formula I filled in No. 9 gavage capsules separately
SD rats, weighing 180-200 g, after adaptation of 3-5 days, were randomly divided into 4 groups, with 4 rats in each group, and were respectively administered of crystalline form A, crystalline form B, crystalline form D and crystalline form E of the compound of formula I by intragastric administration at a dose of 20 mg/kg. The rats were fasted for 12 hours before administration and given food 4 hours after administration. Drinking water was free before and after the experiment and during the experiment.
After administration, the collection time points were 0.167 h (10 min), 0.5 h, 1 h, 2 h, 4 h, 6 h, 8 h, 10 h, and 24 h. About 0.3 mL of blood was collected from the orbital venous plexus and placed in a centrifuge tube containing EDTA-K2. Stored at 4° C. Centrifuged at a condition of 4° C., 4000 rpm, 10 min within 1 h, and stored at −20° C. to be tested.
Pipetted 50 μL of plasma sample to be tested, added 300 μL of acetonitrile solution containing internal standard, shook and mixed for 5 min, centrifuged at 13000 rpm for 10 min, took 30 μL of supernatant, added 150 μL of 50% acetonitrile aqueous solution, and pipetted 1 μL for LC/MS/MS analysis and determination.
Making use of liquid chromatography-tandem mass spectrometry (LC-MS/MS), with diazepam as an internal standard (IS), protein precipitation method was used to extract the analyte and internal standard from the plasma, and reverse phase chromatography column was adopted to separate compounds and internal standard. The analyte was quantified by electrospray ionization (ESI) mode of a tandem quadrupole mass spectrometer.

[3] abbreviates: SD, rat, plasma, po, 20 mg/kg, mean of 4 rats.
Setting [4] is: SD rats, plasma, mean of 4 rats, listed as Crystalline Form B of the Compound of Formula I.
Where [5] appears, read: SD rats, plasma, mean of 4 rats, listed as Crystalline Form D of the Compound of Formula I.
[6] abbreviates: SD rats, plasma, mean of 4 rats, listed as Crystalline Form E of the Compound of Formula I.

Where two headings read alike, the source gives them in different places.

As to `COc1cc2c(Oc3ccc(NC(=O)C4(C(=O)Nc5ccc(F)cc5)CC4)cc3F)ccnc2cc1OCC1(NC2CCCC2)CC1` [Example 1], the “Weight Gain due to Hygroscopicity” value in series [1] is listed as “Less than 0.2%”. For the same compound, the “Relative F” value in series [2] (SD rats, listed as Crystalline Form A of the Compound of Formula I) came to 100%. In series [2] (setting [3]), the AUC(0-inf) was determined as 4960 ng·h/mL, the AUC(0-t) worked out at 4700 ng·h/mL and the half-life is 4.93 h. Further, the MRT last in series [2] (SD, rat, plasma, po, 20 mg/kg, plasma, mean of 4 rats, read-out: MRT(0-t)) was 8.51 h. Further, the Tmax in series [2] (SD, rat, plasma, po, 20 mg/kg, plasma, mean of 4 rats, read-out: Tmax) is 6 h.
Turning to `COc1cc2c(Oc3ccc(NC(=O)C4(C(=O)Nc5ccc(F)cc5)CC4)cc3F)ccnc2cc1OCC1(NC2CCCC2)CC1` [Example 2], in series [2] (setting [4]), the “MRT(0-t)” value is 6.72 h, the Tmax was found to be 4.00 h and the t1/2 is listed as 5.30 h. Besides, the “Relative F” value in series [2] (SD rats, listed as Crystalline Form B of the Compound of Formula I) stood at 134%.
As for `COc1cc2c(Oc3ccc(NC(=O)C4(C(=O)Nc5ccc(F)cc5)CC4)cc3F)ccnc2cc1OCC1(NC2CCCC2)CC1` [Example 4], in series [2] (setting [5]), the “MRT(0-t)” value was determined as 8.73 h, the Tmax is 6.00 h and the t1/2 turned out to be 5.20 h. The “Relative F” value in series [2] (SD rats, listed as Crystalline Form D of the Compound of Formula I) amounted to 72%.
In the case of `COc1cc2c(Oc3ccc(NC(=O)C4(C(=O)Nc5ccc(F)cc5)CC4)cc3F)ccnc2cc1OCC1(NC2CCCC2)CC1` [Example 5], in series [2] (setting [6]), the “MRT(0-t)” value is 7.30 h, the Tmax worked out at 4.50 h and the t1/2 came to 4.61 h. In series [2] (SD rats, listed as Crystalline Form E of the Compound of Formula I), the “Relative F” value is 84%.
